In brackets after ≈: the same amount, converted by molar mass. Peptide text beside a SMILES is read from it.
Assays:
[1] = in vitro; format: cell-based; conditions: human, HaCaT keratinocyte cells, Cell Viability
Procedure: To evaluate the cytotoxicity of the peptides prepared in <Example 1>, toxicity was measured using a human keratinocyte cell line (HaCaT cell line, Dr. N. E. Fusenig, Heidelberg, Germany).
Specifically, HaCaT cells cultured in DMEM medium containing 10% fetal bovine serum (FBS) were seeded at a density of 2×10^5 cells/well into a microtiter plate and incubated for 24 hours. Then, peptides dCATH, dCATH-A1, dCATH-A2, dCATH-A3, dCATH-A4, dCATH-A5, dCATH-A6, and dCATH-A7 were added to each well at concentrations of 3.13, 6.25, 12.5, 25.0, 50.0, and 100.0 μM/well, followed by incubation for 24 hours in a 5% CO2 incubator. After 24 hours, 100 μL of a reaction solution containing 0.5 mg/mL MTT (Thiazolyl Blue Tetrazolium Bromide) dissolved in phosphate-buffered saline (PBS) was added to each well and reacted for 4 hours. After removing the supernatant, 200 μL of DMSO (dimethyl sulfoxide) was added to dissolve the formed MTT crystals, and absorbance at 570 nm was measured to determine cell viability.

[2] = system: Pseudomonas aeruginosa ATCC 27853; format: cell-based
Description: (§1) To compare the antimicrobial activity of the peptides prepared in <Example 1>, the minimum inhibitory concentration (MIC), […] measured. Here, the minimal inhibitory concentration (MIC) refers to the lowest concentration of a substance that prevents visible bacterial growth.
(§2) Specifically, the bacterial strains listed in Table 2 below were obtained and cultured in media suitable for each strain until the mid-log phase. The cultures were then diluted to a concentration of 2×10^4 cells/100 μL and prepared in microtiter plates (Nunc, USA). Subsequently, serial 2-fold dilutions of the peptides prepared in Example 1 were prepared, and 10 μL of each dilution was added to the wells, and the plates were incubated at 37° C. for 18 hours. Absorbance at 600 nm was measured using a microtiter plate reader (Merck ELISA reader, Germany) to determine the MIC values for each bacterial strain. The parent peptide dCATH was used as a control.

[3] = system: Bacillus cereus KCTC 2508; format: cell-based
Description: as §1, §2

[4] = system: Escherichia coli ATCC 25922; format: cell-based
Description: as §1, §2

[5] = system: Staphylococcus aureus ATCC 25923; format: cell-based; conditions: ATCC 25923
Description: as §1, §2

[6] = system: Acinetobacter baumannii KCTC 1017; format: cell-based; conditions: KCTC 1017
Description: as §1, §2

[7] = system: Listeria monocytogenes KCTC 3710; format: cell-based
Description: as §1, §2

[8] = system: Acinetobacter baumannii_isolate 22 (antibiotic-resistant); format: cell-based, Acinetobacter baumannii; conditions: isolate 22 (antibiotic-resistant)
Description: as §1, §2

[9] = system: Acinetobacter baumannii_isolate 26 (antibiotic-resistant); format: cell-based, Acinetobacter baumannii; conditions: isolate 26 (antibiotic-resistant)
Description: as §1, §2

[10] = system: Acinetobacter baumannii_isolate 4 (antibiotic-resistant); format: cell-based, Acinetobacter baumannii; conditions: isolate 4 (antibiotic-resistant)
Description: as §1, §2

[11] = system: Acinetobacter baumannii_isolate 8 (antibiotic-resistant); format: cell-based, Acinetobacter baumannii; conditions: isolate 8 (antibiotic-resistant)
Description: as §1, §2

[12] = system: Acinetobacter baumannii_isolate 3 (antibiotic-resistant); format: cell-based, Acinetobacter baumannii; conditions: isolate 3 (antibiotic-resistant)
Description: as §1, §2

[13] = system: Acinetobacter baumannii_isolate 13 (antibiotic-resistant); format: cell-based, Acinetobacter baumannii; conditions: isolate 13 (antibiotic-resistant)
Description: as §1, §2

[14] = system: Acinetobacter baumannii_isolate15 (antibiotic-resistant); format: cell-based, Acinetobacter baumannii; conditions: isolate15 (antibiotic-resistant)
Description: as §1, §2

[15] = system: Acinetobacter baumannii_isolate 1 (antibiotic-resistant); format: cell-based, Acinetobacter baumannii; conditions: isolate 1 (antibiotic-resistant)
Description: as §1, §2

[16] = system: Acinetobacter baumannii_isolate 7 (antibiotic-resistant); format: cell-based, Acinetobacter baumannii; conditions: isolate 7 (antibiotic-resistant)
Description: as §1, §2

[17] = system: Acinetobacter baumannii_isolate16 (antibiotic-resistant); format: cell-based, Acinetobacter baumannii; conditions: isolate16 (antibiotic-resistant)
Description: as §1, §2

[18] = system: Acinetobacter baumannii_isolate21 (antibiotic-resistant); format: cell-based, Acinetobacter baumannii; conditions: isolate21 (antibiotic-resistant)
Description: as §1, §2

[19] = system: Acinetobacter baumannii_isolate 5 (antibiotic-resistant); format: cell-based, Acinetobacter baumannii; conditions: isolate 5 (antibiotic-resistant)
Description: as §1, §2

[20] = system: Acinetobacter baumannii_isolate 25 (antibiotic-resistant); format: cell-based, Acinetobacter baumannii; conditions: isolate 25 (antibiotic-resistant)
Description: as §1, §2

[21] = system: Acinetobacter baumannii_isolate 24 (antibiotic-resistant); format: cell-based, Acinetobacter baumannii; conditions: isolate 24 (antibiotic-resistant)
Description: as §1, §2

[22] = system: Acinetobacter baumannii_isolate 12 (antibiotic-resistant); format: cell-based, Acinetobacter baumannii; conditions: isolate 12 (antibiotic-resistant)
Description: as §1, §2

[23] = system: Acinetobacter baumannii_isolate 18 (antibiotic-resistant); format: cell-based, Acinetobacter baumannii; conditions: isolate 18 (antibiotic-resistant)
Description: as §1, §2

[24] = system: Acinetobacter baumannii_isolate 23 (antibiotic-resistant); format: cell-based, Acinetobacter baumannii; conditions: isolate 23 (antibiotic-resistant)
Description: as §1, §2

[25] = system: Acinetobacter baumannii_isolate 2 (antibiotic-resistant); format: cell-based, Acinetobacter baumannii; conditions: isolate 2 (antibiotic-resistant)
Description: as §1, §2

[26] = system: Acinetobacter baumannii_isolate 19 (antibiotic-resistant); format: cell-based, Acinetobacter baumannii; conditions: isolate 19 (antibiotic-resistant)
Description: as §1, §2

CC[C@H](C)[C@H](NC(=O)[C@H](C)NC(=O)[C@H](CC(C)C)NC(=O)[C@@H]1CCCN1C(=O)[C@@H](NC(=O)[C@H](CC(C)C)NC(=O)[C@H](CCC(N)=O)NC(=O)[C@H](C)NC(=O)[C@H](Cc1ccccc1)NC(=O)[C@H](CCCNC(=N)N)NC(=O)[C@@H](N)CCCCN)C(C)C)C(=O)N[C@@H](CCCCN)C(=O)N[C@H](C(=O)N[C@@H](Cc1ccc(O)cc1)C(=O)N[C@@H](CCCNC(=N)N)C(=O)N[C@@H](C)C(=O)N[C@@H](Cc1c[nH]c2ccccc12)C(=O)N[C@@H](CCCCN)C(=O)N[C@@H](CCCNC(=N)N)C(=O)N[C@@H](CCCNC(=N)N)C(N)=O)[C@@H](C)CC [dCATH-A2] (H-KRFAQLVPLAIKIYRAWKRR-NH2; N-terminus assumed)
viability at 24 h, 3.13 µM [1]: 100% | viability at 24 h, 6.25 µM [1]: 100% | viability at 24 h, 12.5 µM [1]: 89% | viability at 24 h, 25 µM [1]: 30.7% | viability at 24 h, 50 µM [1]: 2.99% | viability at 24 h, 100 µM [1]: 2.16% | MIC [2]: 2 µM (≈ 5.03 µg/mL) | MIC [3]: 1 µM (≈ 2.51 µg/mL) | MIC [4]: 2 µM (≈ 5.03 µg/mL) | MIC [5]: 1 µM (≈ 2.51 µg/mL) | MIC [6]: 1 µM (≈ 2.51 µg/mL) | MIC [7]: 2 µM (≈ 5.03 µg/mL) | MIC [8]: 1 µM (≈ 2.51 µg/mL) | MIC [9]: 2 µM (≈ 5.03 µg/mL) | MIC [10]: 2 µM (≈ 5.03 µg/mL) | MIC [11]: 1 µM (≈ 2.51 µg/mL) | MIC [12]: 1 µM (≈ 2.51 µg/mL) | MIC [13]: 1 µM (≈ 2.51 µg/mL) | MIC [14]: 1 µM (≈ 2.51 µg/mL) | MIC [15]: 2 µM (≈ 5.03 µg/mL) | MIC [16]: 1 µM (≈ 2.51 µg/mL) | MIC [17]: 1 µM (≈ 2.51 µg/mL) | MIC [18]: 1 µM (≈ 2.51 µg/mL) | MIC [19]: 1 µM (≈ 2.51 µg/mL) | MIC [20]: 1 µM (≈ 2.51 µg/mL) | MIC [21]: 1 µM (≈ 2.51 µg/mL) | MIC [22]: 1 µM (≈ 2.51 µg/mL) | MIC [23]: 1 µM (≈ 2.51 µg/mL) | MIC [24]: 1 µM (≈ 2.51 µg/mL) | MIC [25]: 1 µM (≈ 2.51 µg/mL) | MIC [26]: 1 µM (≈ 2.51 µg/mL)

CC[C@H](C)[C@H](NC(=O)[C@H](C)NC(=O)[C@H](CCCCN)NC(=O)[C@H](CCCCN)NC(=O)[C@@H](NC(=O)[C@H](CC(C)C)NC(=O)[C@H](CCC(N)=O)NC(=O)[C@H](C)NC(=O)[C@H](C)NC(=O)[C@H](CCCNC(=N)N)NC(=O)[C@@H](N)CCCCN)C(C)C)C(=O)N[C@@H](CCCCN)C(=O)N[C@H](C(=O)N[C@@H](Cc1ccc(O)cc1)C(=O)N[C@@H](CCCNC(=N)N)C(=O)N[C@@H](C)C(=O)N[C@@H](Cc1c[nH]c2ccccc12)C(=O)N[C@@H](CCCCN)C(=O)N[C@@H](CCCNC(=N)N)C(=O)N[C@@H](CCCNC(=N)N)C(N)=O)[C@@H](C)CC [dCATH-A5] (H-KRAAQLVKKAIKIYRAWKRR-NH2; N-terminus assumed)
viability at 24 h, 3.13 µM [1]: 100% | viability at 24 h, 6.25 µM [1]: 92.3% | viability at 24 h, 12.5 µM [1]: 95.1% | viability at 24 h, 25 µM [1]: 58% | viability at 24 h, 50 µM [1]: 8.27% | viability at 24 h, 100 µM [1]: 3.71% | MIC [2]: 1 µM (≈ 2.48 µg/mL) | MIC [3]: 1 µM (≈ 2.48 µg/mL) | MIC [4]: 1 µM (≈ 2.48 µg/mL) | MIC [5]: 1 µM (≈ 2.48 µg/mL) | MIC [6]: 1 µM (≈ 2.48 µg/mL) | MIC [7]: 1 µM (≈ 2.48 µg/mL) | MIC [8]: 2 µM (≈ 4.97 µg/mL) | MIC [9]: 1 µM (≈ 2.48 µg/mL) | MIC [10]: 1 µM (≈ 2.48 µg/mL) | MIC [11]: 1 µM (≈ 2.48 µg/mL) | MIC [12]: 1 µM (≈ 2.48 µg/mL) | MIC [13]: 1 µM (≈ 2.48 µg/mL) | MIC [14]: 1 µM (≈ 2.48 µg/mL) | MIC [15]: 1 µM (≈ 2.48 µg/mL) | MIC [16]: 1 µM (≈ 2.48 µg/mL) | MIC [17]: 1 µM (≈ 2.48 µg/mL) | MIC [18]: 1 µM (≈ 2.48 µg/mL) | MIC [19]: 1 µM (≈ 2.48 µg/mL) | MIC [20]: 1 µM (≈ 2.48 µg/mL) | MIC [21]: 2 µM (≈ 4.97 µg/mL) | MIC [22]: 1 µM (≈ 2.48 µg/mL) | MIC [23]: 1 µM (≈ 2.48 µg/mL) | MIC [24]: 1 µM (≈ 2.48 µg/mL) | MIC [25]: 1 µM (≈ 2.48 µg/mL) | MIC [26]: 1 µM (≈ 2.48 µg/mL)

CC[C@H](C)[C@H](NC(=O)[C@H](C)NC(=O)[C@H](CC(C)C)NC(=O)[C@@H]1CCCN1C(=O)[C@@H](NC(=O)[C@H](CC(C)C)NC(=O)[C@H](CCC(N)=O)NC(=O)[C@H](C)NC(=O)[C@H](C)NC(=O)[C@H](CCCNC(=N)N)NC(=O)[C@@H](N)CCCCN)C(C)C)C(=O)N[C@@H](CCCCN)C(=O)N[C@H](C(=O)N[C@@H](Cc1ccc(O)cc1)C(=O)N[C@@H](CCCNC(=N)N)C(=O)N[C@@H](C)C(=O)N[C@@H](Cc1c[nH]c2ccccc12)C(=O)N[C@@H](CCCCN)C(=O)N[C@@H](CCCNC(=N)N)C(=O)N[C@@H](CCCNC(=N)N)C(N)=O)[C@@H](C)CC [dCATH-A3] (H-KRAAQLVPLAIKIYRAWKRR-NH2; N-terminus assumed)
viability at 24 h, 3.13 µM [1]: 92% | viability at 24 h, 6.25 µM [1]: 91.9% | viability at 24 h, 12.5 µM [1]: 97.9% | viability at 24 h, 25 µM [1]: 56.6% | viability at 24 h, 50 µM [1]: 5.47% | viability at 24 h, 100 µM [1]: 1.59% | MIC [2]: 2 µM (≈ 4.87 µg/mL) | MIC [3]: 2 µM (≈ 4.87 µg/mL) | MIC [4]: 2 µM (≈ 4.87 µg/mL) | MIC [5]: 2 µM (≈ 4.87 µg/mL) | MIC [6]: 1 µM (≈ 2.44 µg/mL) | MIC [7]: 2 µM (≈ 4.87 µg/mL) | MIC [8]: 1 µM (≈ 2.44 µg/mL) | MIC [9]: 1 µM (≈ 2.44 µg/mL) | MIC [10]: 1 µM (≈ 2.44 µg/mL) | MIC [11]: 1 µM (≈ 2.44 µg/mL) | MIC [12]: 1 µM (≈ 2.44 µg/mL) | MIC [13]: 1 µM (≈ 2.44 µg/mL) | MIC [14]: 2 µM (≈ 4.87 µg/mL) | MIC [15]: 1 µM (≈ 2.44 µg/mL) | MIC [16]: 1 µM (≈ 2.44 µg/mL) | MIC [17]: 1 µM (≈ 2.44 µg/mL) | MIC [18]: 4 µM (≈ 9.75 µg/mL) | MIC [19]: 1 µM (≈ 2.44 µg/mL) | MIC [20]: 1 µM (≈ 2.44 µg/mL) | MIC [21]: 1 µM (≈ 2.44 µg/mL) | MIC [22]: 1 µM (≈ 2.44 µg/mL) | MIC [23]: 1 µM (≈ 2.44 µg/mL) | MIC [24]: 1 µM (≈ 2.44 µg/mL) | MIC [25]: 1 µM (≈ 2.44 µg/mL) | MIC [26]: 1 µM (≈ 2.44 µg/mL)

— patent US20260217765A1, “NOVEL ANTIMICROBIAL PEPTIDE DESIGNED FROM DUCK-DERIVED ANTIMICROBIAL PEPTIDE ANDUSE THEREOF” (INDUSTRY-ACADEMIC COOPERATION FOUNDATION, CHOSUN UNIVERSITY, priority 2023, published 2026)
